target: Voltage-gated inwardly rectifying potassium channel KCNH2 (Homo sapiens, UniProt Q12809); conditions: not given
Sequence (Q12809 whole entry): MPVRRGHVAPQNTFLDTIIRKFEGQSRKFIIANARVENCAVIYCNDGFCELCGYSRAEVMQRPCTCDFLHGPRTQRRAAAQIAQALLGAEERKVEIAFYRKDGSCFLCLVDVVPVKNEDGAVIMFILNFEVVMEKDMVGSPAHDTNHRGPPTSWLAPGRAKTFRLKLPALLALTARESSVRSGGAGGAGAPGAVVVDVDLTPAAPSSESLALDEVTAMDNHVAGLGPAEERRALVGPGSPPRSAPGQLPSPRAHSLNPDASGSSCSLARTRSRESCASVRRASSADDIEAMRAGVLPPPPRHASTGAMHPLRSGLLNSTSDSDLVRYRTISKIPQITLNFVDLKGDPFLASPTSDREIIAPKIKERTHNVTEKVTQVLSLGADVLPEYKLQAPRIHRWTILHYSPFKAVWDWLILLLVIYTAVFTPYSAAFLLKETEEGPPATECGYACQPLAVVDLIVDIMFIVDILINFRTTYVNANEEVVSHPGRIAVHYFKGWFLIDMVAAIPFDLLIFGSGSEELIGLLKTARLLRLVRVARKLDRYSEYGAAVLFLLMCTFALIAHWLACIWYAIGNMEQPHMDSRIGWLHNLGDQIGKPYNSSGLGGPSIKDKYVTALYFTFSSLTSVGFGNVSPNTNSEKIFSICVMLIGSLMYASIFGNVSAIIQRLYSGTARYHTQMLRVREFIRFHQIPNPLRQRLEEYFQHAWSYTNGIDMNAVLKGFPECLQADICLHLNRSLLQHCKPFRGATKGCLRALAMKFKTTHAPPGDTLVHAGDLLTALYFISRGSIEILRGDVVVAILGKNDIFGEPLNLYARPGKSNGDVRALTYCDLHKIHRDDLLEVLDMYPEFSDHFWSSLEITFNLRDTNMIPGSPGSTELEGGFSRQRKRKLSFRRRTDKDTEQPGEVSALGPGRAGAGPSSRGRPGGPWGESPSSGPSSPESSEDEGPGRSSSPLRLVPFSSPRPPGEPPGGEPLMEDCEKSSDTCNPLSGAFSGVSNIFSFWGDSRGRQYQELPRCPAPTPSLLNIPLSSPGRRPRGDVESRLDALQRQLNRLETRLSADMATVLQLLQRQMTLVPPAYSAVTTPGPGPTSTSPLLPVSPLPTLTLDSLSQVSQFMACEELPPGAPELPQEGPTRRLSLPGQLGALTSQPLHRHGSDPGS

SMILES | IC50 [nM]
Cc1c([C@@H](O)CN2CCC3(CC2)CC(=O)N(c2ccc(S(C)(=O)=O)nc2)C3)ccc2c1COC2=O | > 60000
Cc1c([C@@H](O)CN2CCC3(CC2)CCN(c2ccc(C#N)nc2)C3)ccc2c1COC2=O | 1200
Cc1c([C@@H](O)CN2CCC3(CC2)CCN(c2ccc(C(C)(C)O)nc2)C3)ccc2c1COC2=O | 29000
Cc1c([C@@H](O)CN2CCC3(CC2)CC(=O)N(c2ccc(C#N)cn2)C3)ccc2c1COC2=O | 1800

target: T1, ATP-sensitive inward rectifier potassium channel 1 (Homo sapiens, UniProt P48048); assay: Inhibition of human ROMK expressed in HEK293 cells after 30 mins by thallium flux assay; format: cell-based; conditions: hek293
T1 sequence (P48048 whole entry): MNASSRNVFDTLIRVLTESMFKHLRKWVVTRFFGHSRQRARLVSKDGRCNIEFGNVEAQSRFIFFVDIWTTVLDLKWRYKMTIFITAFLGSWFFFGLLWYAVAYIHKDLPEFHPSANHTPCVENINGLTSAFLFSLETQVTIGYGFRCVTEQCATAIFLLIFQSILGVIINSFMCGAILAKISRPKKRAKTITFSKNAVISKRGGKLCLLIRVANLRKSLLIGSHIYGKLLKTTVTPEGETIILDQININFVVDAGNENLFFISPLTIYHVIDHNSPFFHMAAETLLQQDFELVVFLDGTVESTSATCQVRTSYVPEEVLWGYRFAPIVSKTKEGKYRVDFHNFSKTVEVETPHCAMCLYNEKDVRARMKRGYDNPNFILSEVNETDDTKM

IC50 | SMILES
Not Active | Cc1c([C@@H](O)CN2CCC3(CC2)CCN(c2ccc(C(C)(C)O)nc2)C3)ccc2c1COC2=O

same assay, conditions: read-out: IC50

SMILES | IC50 [nM]
Cc1c([C@@H](O)CN2CCC3(CC2)CCN(c2ccc(C#N)cn2)CC3)ccc2c1COC2=O | 47
Cc1c([C@@H](O)CN2CCC3(CC2)CC(=O)N(c2ccc(C#N)cn2)C3)ccc2c1COC2=O | 10

The remaining lines, values ahead:

IC50 [nM] | SMILES
6400 | Cc1c([C@@H](O)CN2CCC3(CC2)CCN(c2ccc([S+](C)[O-])nc2)C3)ccc2c1COC2=O (stereo partly drawn)
901 | CSc1ccc(N2CCC3(CCN(C[C@H](O)c4ccc5c(c4C)COC5=O)CC3)C2)cn1
10 | Cc1c([C@@H](O)CN2CCC3(CC2)CCN(c2cncc(C#N)c2)C3)ccc2c1COC2=O

test system: Rattus norvegicus; assay: Antihypertensive activity in rat spontaneous hypertensive model assessed as change in systolic blood pressure at 25 mg/kg, po measured after 3 days; format: functional; conditions: not given; call rule not given here

SMILES | Activity [mmHg]
NS(=O)(=O)c1cc2c(cc1Cl)NCNS2(=O)=O [HYDROCHLOROTHIAZIDE] | -10.5

species on record: Homo sapiens; assay: Selectivity ratio of IC50 for human ERG expressed in HEK293 cells to IC50 for human ROMK expressed in HEK293 cells; format: cell-based; conditions: not given

SMILES | Ratio IC50
Cc1c([C@@H](O)CN2CCC3(CC2)CCN(c2ccc(C#N)nc2)C3)ccc2c1COC2=O | 13
Cc1c([C@@H](O)CN2CCC3(CC2)CC(=O)N(c2ccc(C#N)cn2)C3)ccc2c1COC2=O | 180

From ChEMBL document CHEMBL4002630, “The design and synthesis of novel spirocyclic heterocyclic sulfone ROMK inhibitors as diuretics” (Bioorg Med Chem Lett, 2017)
